Laboratory results reported in US7671058B2, “N-(3,4-disubstituted phenyl) salicylamide derivatives” (Institute of Medicinal Molecular Design, Inc., priority 2006, dated 2010).
Where two headings read alike, the source gives them in different places.

What was measured:
[1] = tested on: NF-κB; experiment: NF-κB inhibition test: pNFκB-Luc luciferase reporter in U2-OS cells stimulated with human TNF α; type: cell-based; conditions: human TNF α 10 ng/mL; for Inhibition Rate of NF-κB (%) / inhibition at 2 µM: compound 2 μM, 8 hours; for IC50: from inhibition rates at 1, 0.1, 0.01 and 0.001 μM, read-out: IC50 against activation of NF-κB; for inhibition at 2 µM: read-out: Inhibition Rate of NF-κB (%)
Experimental: (1) Transfection to U2-OS Cells and Inhibition Test of Activation
U2-OS cells were seeded at 2×10^4 cells/well in 96-well culture plate, and transfection was carried out using FuGENE 6 Transfection Reagent (Roche Diagnostics GmbH). The procedures of the transfection are shown below.
11 μg of reporter plasmid (pNFκB-Luc; Stratagene Corporation) and 1.1 μg of pCMV β (CLONTECH Laboratories, Inc.) were mixed in 1.1 mL of OPTI-MEM I medium (GIBCO BRL) (solution (A)).
[…] of FuGENE 6 Transfection Reagent was mixed in 1.1 mL of OPTI-MEM I medium (solution (B)).
(§1) The above solution (A) and solution (B) were mixed, let them stand for 15 minutes at room temperature, then, 8.8 mL of OPTI-MEM I medium was added and diluted.
To this transfection solution, U2-OS cell suspension (11 mL) in McCoy's 5A medium (GIBCO BRL) containing 10% Fetal Bovine Serum (FBS; GIBCO BRL) at […] was added and well mixed.
(§2) 0.2 mL of the above solution was dispensed into each well of 96-well culture plates, and incubated for 24 hours (37° C., 5% CO2).
After removal of 50 μL of medium from each well, 50 μL of McCoy's 5A medium (serum-free) containing compound of the present application was added to a final concentration of 0.01˜2 μM (0.001, 0.01, 0.1, 0.5, 1 or 2 μM), and the plates were incubated for 2 hours (37° C., 5% CO2).
10 μL of the McCoy's 5A medium (serum-free) containing human TNF α (PEPROTECH EC Ltd.) was added to each well to achieve a final concentration of 10 ng/mL, and incubated for 8 hours (37° C., 5% CO2).
(§3) Medium was completely removed and plates were preserved at −80° C. until measurements.
(§4) Cell lysates were prepared by adding 40 μL of Passive Lysis Buffer (Promega Corporation) to each well.
(§5) 10 μL of each lysate was transferred to 96-well white plates. 50 μL of PicaGene L.T.2.0 (TOYO INK MFG. CO., LTD.) was added to each well, then, luminescence was measured after leaving for 10 minutes at room temperature.
(§6) 10 μL of each lysate was transferred to 96-well black plates. 100 μL of Z Buffer (preparation method will be explained later) was added to each well, and fluorescence was measured immediately.
(§7) 10 μL of each lysate was transferred to 96-well clear plates. 200 μL of protein assay reagent prepared from the BCA Protein Assay Kit (Pierce Biotechnology, Inc.) was added to each well, and, absorbance was measured after incubation for 30 minutes at 37° C.
(§8) For measurements of luminescence, fluorescence, and absorbance, microplate reader GENios (TECAN G.M.B.H.) was used.
(3) Calculation of Inhibition Rate
Luminescence values that show the degree of activation by TNF α stimulation were normalized by β-gal values that show transfection efficiency. Using the normalized values, the following calculation was carried out using the luminescence values that increased by TNF α stimulation. Inhibition Rate(%)=[…] E: In the presence of the compound of the present application, increased luminescence values by TNF α stimulation C: Without the presence of the compound of the present application, increased luminescence values by TNF α, stimulation
The values of protein assay by BCA reagent were used for a simple assessment of cytotoxicity, and not used for the calculation of inhibition rates.
NF-κB Inhibition Rates are shown below. The values in parentheses in the table represent the concentration of the compound of the present application.
NF-κB inhibition rates where the concentrations of the compound of the present application were 1, 0.1, 0.01 and 0.001 μM were calculated, and the 50% inhibitory concentrations (IC50) of the compounds of the present application against activation of NF-κB were evaluated.

[2] = tested on: STAT6; experiment: STAT6 inhibition test: (GLS)x8/pTA-Luc luciferase reporter in U2-OS cells stimulated with human IL-4; type: cell-based; conditions: human IL-4 40 ng/mL; for Inhibition Rate of STAT6 (%) / inhibition at 2 µM: compound 2 μM, 8 hours; for IC50: from inhibition rates at 1, 0.1, 0.01 and 0.001 μM, read-out: IC50 against activation of STAT6; for inhibition at 2 µM: read-out: Inhibition Rate of STAT6 (%)
Excerpt: (1) Construction of a STAT6 Reporter Plasmid
The Oligonucleotides (SEQ ID: 1, 2) containing two copies of STAT6 binding sequences (refer to J. Biol. Chem., vol. 276, No. 9, pp. 6675-6688 (2001).) were synthesized, and integrated into the enhancer region of the reporter plasmid pTA-Luc Vector (CLONTECH Laboratories, Inc.) at the restriction enzyme BgIII site.
When the oligonucleotide is integrated in positive direction into the plasmid, the upstream BglII site is not reconstructed. Therefore, STAT6 binding sequences can be increased by repeating integration of the oligonucleotide at the restriction enzyme BglII site.
In the present test, a plasmid including eight integrated STAT6 binding sequences was constructed and provided for the reporter assay as (GLS)x8/pTA-Luc. Confirmation of the sequences was carried out using an automated fluorescence sequencer (Model 310 (Applied Biosystems)).
(2) Transfection into U2-OS Cells and Inhibition Test for STAT6 Activation
U2-OS cells were seeded to at 2×10^4 cells/well in 96-well culture plates, and transfection was carried out using FuGENE 6 Transfection Reagent (Roche Diagnostics GmbH). The procedures of the transfection are shown below.
11 μg of reporter plasmid ((GLS)x8/pTA-Luc) and 1.1 μg of pCMV β (CLONTECH Laboratories, Inc.) were mixed in 1.1 mL of OPTI-MEM I medium (GIBCO BRL) (solution (A)).
33 μL of FuGENE 6 Transfection Reagent was mixed in 1.1 mL of OPTI-MEM I medium (solution (B)).
as §1
To this transfection solution, U2-OS cell suspension (11 mL) in McCoy's 5A medium (GIBCO BRL) containing 10% Fetal Bovine Serum (FBS; GIBCO BRL) at 2×10^5 cells/mL was added and well mixed.
as §2
After removal of 50 μL of medium from each well, 50 μL of McCoy's 5A medium (serum-free) containing compound, of the present application was added to a final concentration of 0.01˜2 μM (0.001, 0.01, 0.1, 0.5, 1 or 2 μM), and the plates were incubated for 2 hours (37° C., 5% CO2).
10 μL of the McCoy's 5A medium (serum-free) containing human IL-4 (R&D Systems, Inc) was added to each well to achieve a final concentration of 40 ng/mL, and incubated for 8 hours (37° C., 5% CO2).
as §3, §4, §5, §6, §7, §8
(4) Calculation of Inhibition Rate
Luminescence values that show the degree of activation by IL-4 stimulation were normalized by β-gal values that show transfection efficiency. Using the normalized values, the following calculations were carried out using the luminescence values increased by IL-4 stimulation. Inhibition Rate(%)=[…] E: In the presence of the compound of the present application, increased luminescence value by IL-4 stimulation C: Without the presence of the compound of the present application, increased luminescence value by IL-4 stimulation […]

Structure (SMILES)	Inhibition Rate of NF-κB (%) [1]	IC50 [1]	Inhibition Rate of STAT6 (%) [2]	IC50 [2]	inhibition at 2 µM ([1]; U2OS)	IC50 ([1]; U2OS)	inhibition at 2 µM ([2]; U2OS)	IC50 ([2]; U2OS)
Cl.NC1CCN(c2ccc(NC(=O)c3ccc(Cl)cc3O)cc2F)CC1 [compound 71]	94 (2 μM) %	8.41 nM	92 (2 μM) %	3.36 nM	–	–	–	–
Cl.O=C(Nc1ccc(OCC2CCCNC2)c(F)c1)c1cc(Cl)ccc1O (centres unmarked) [compound 49]	87 (2 μM) %	28.4 nM	84 (2 μM) %	14.8 nM	–	–	–	–
Cl.O=C(Nc1ccc(OC2CCNCC2)c(F)c1)c1cc(Cl)ccc1O [compound 32]	91 (2 μM) %	13.7 nM	92 (2 μM) %	5.88 nM	–	–	–	–
CN1CCN(c2ccc(NC(=O)c3cc(Cl)ccc3O)cc2C(F)(F)F)CC1.Cl [compound 16]	86 (2 μM) %	89.1 nM	92 (2 μM) %	82.2 nM	–	–	–	–
O=C(Nc1ccc(N2CCOCC2)c(C(F)(F)F)c1)c1cc(Cl)ccc1O [compound 3]	30 (2 μM) %	–	67 (2 μM) %	–	–	–	–	–
CN1CCN(c2ccc(NC(=O)c3ccc(Cl)cc3O)cc2F)CC1.Cl [compound 61]	80 (2 μM) %	–	86 (2 μM) %	–	–	–	–	–
Cl.O=C(Nc1ccc(N2CCCNCC2)c(Cl)c1)c1cc(Cl)ccc1O [compound 81]	90 (2 μM) %	17.8 nM	92 (2 μM) %	10.9 nM	–	–	–	–
NC1CCN(c2ccc(NC(=O)c3cc(Cl)ccc3O)cc2F)CC1 [compound 66]	92 (2 μM) %	9.74 nM	85 (2 μM) %	3.79 nM	–	–	–	–
O=C(Nc1ccc(N2CCCCCC2)c(F)c1)c1cc(Cl)ccc1O [compound 7]	46 (2 μM) %	–	84 (2 μM) %	–	–	–	–	–
O=C1CCN(c2ccc(NC(=O)c3cc(Cl)ccc3O)cc2F)CC1 [compound 39]	16 (2 μM) %	–	46 (2 μM) %	–	–	–	–	–
NC1CCN(c2ccc(NC(=O)c3cc(Cl)ccc3O)cc2F)CC1 [Compound 27]	–	–	–	–	95%	6.79 nM	98%	3.22 nM
Cl.NC1CCN(c2ccc(NC(=O)c3cc(Cl)ccc3O)cc2Cl)CC1 [compound 75]	78 (2 μM) %	35.8 nM	76 (2 μM) %	76 nM	–	–	–	–
CN1CCN(c2ccc(NC(=O)c3cc(Cl)ccc3O)cc2F)CC1 [compound 12]	91 (2 μM) %	25.2 nM	94 (2 μM) %	15 nM	–	–	–	–
Cl.NCC1CCCN(c2ccc(NC(=O)c3cc(Cl)ccc3O)cc2F)C1 (centres unmarked) [compound 54]	84 (2 μM) %	43.5 nM	89 (2 μM) %	15 nM	–	–	–	–
CCOc1cc(NC(=O)c2cc(Cl)ccc2O)ccc1N1CCCCC1 [compound 14]	60 (2 μM) %	–	56 (2 μM) %	–	–	–	–	–
Cl.NCC1CCN(c2ccc(NC(=O)c3cc(Cl)ccc3O)cc2F)CC1 [compound 47]	95 (2 μM) %	14 nM	96 (2 μM) %	7.98 nM	–	–	–	–
CN1CCN(c2ccc(NC(=O)c3cc(F)ccc3O)cc2F)CC1.Cl [compound 59]	43 (2 μM) %	–	60 (2 μM) %	–	–	–	–	–
CN1CCN(c2ccc(NC(=O)c3ccc(F)cc3O)cc2F)CC1.Cl [compound 58]	59 (2 μM) %	–	70 (2 μM) %	–	–	–	–	–
Cl.O=C(Nc1ccc(OCC2CCNCC2)c(F)c1)c1cc(Cl)ccc1O [compound 45]	68 (2 μM) %	–	76 (2 μM) %	–	–	–	–	–
O=C(Nc1ccc(N2CCNCC2)c(F)c1)c1cc(Cl)ccc1O [Compound 22]	–	–	–	–	82%	80.8 nM	85%	82.3 nM
O=C(Nc1ccc(N2CCC(O)CC2)c(F)c1)c1cc(Cl)ccc1O [compound 43]	32 (2 μM) %	–	46 (2 μM) %	–	–	–	–	–
O=C(Nc1ccc(OC2CCCCC2)c(C(F)(F)F)c1)c1cc(Cl)ccc1O [compound 5]	63 (2 μM) %	–	88 (2 μM) %	–	–	–	–	–
Cl.NC1CCN(c2ccc(NC(=O)c3cc(Cl)ccc3O)cc2C(F)(F)F)CC1 [compound 74]	84 (2 μM) %	66.5 nM	80 (2 μM) %	105 nM	–	–	–	–
CN1CCC(Oc2ccc(NC(=O)c3cc(Cl)ccc3O)cc2F)CC1 [compound 24]	91 (2 μM) %	43.3 nM	93 (2 μM) %	36.8 nM	–	–	–	–
CN1CCCN(c2ccc(NC(=O)c3cc(Br)ccc3O)cc2F)CC1 [compound 86]	93 (2 μM) %	7.62 nM	93 (2 μM) %	10.8 nM	–	–	–	–
